The results in this text go back to US7772192B2, “Compositions and methods for treatment of disease with acetylated disaccharides” (The Regents of the University of California, priority 2003, dated 2010).

Experiment [1] deals with cell-surface sLe^a of LS180 cells. The experiment can be described thus: Flow cytometry of cell-surface sLe^a (CA19-9). In kind it is cell-based, human. To be noted: 50 μM. How it is done: Peracetylated forms of GlcNAcβ1,3Galβ-O-naphthalenemethanol (AcGnG-NM) and Galβ1,3Galβ-O-naphthalenemethanol (AcGG-NM) were prepared as described. Sarkar, et al., Carbohydr. Res., 329, 287-300, 2000. The compounds were dissolved in dimethylsulfoxide (DMSO) and added to growth medium to achieve the concentrations indicated in the figures. The supplemented medium was then exchanged for the medium in established cultures of cells in order to avoid lysis caused by adding concentrated DMSO directly to the plates. The final concentration of DMSO was adjusted to ≦0.5% (v/v). After the specified number of days, the cells were harvested with 2 mM EDTA in PBS (20 min) and used for the following experiments.
Cell Sorting. To detect the presence or absence of the relevant carbohydrate determinants, cells were stained with CSLEX-1 (anti-sLe^X, 5 μg/mL, Becton-Dickinson) or CA-19-9 ([…], 14.5 μg/mL, Chemicon) and analyzed by flow cytometry (FACScan Becton-Dickinson, Franklin Lakes, N.J.). […]
Treatment of LS180 cells with AcGnG-NM reduces cell-surface sLe^X, but not sLe^a. […] LS180 cells were grown in the presence of 50 μM AcGnG-NM, harvested with EDTA, stained with monoclonal antibodies (CSLEX-1, anti-sLe^X and CA19-9, anti-sLe^a) as indicated and analyzed by flow cytometry (Materials and Methods). […]
For orientation: Flow cytometry measures light scatter and fluorescence of single cells or particles in a stream.

For experiment [2], the system named is sLe^X on LS180 cell surface. The experiment can be described thus: ELISA with CSLEX-1 mAb of cell-surface sLe^X. The class given is cell-based, human. The settings on record: LS180 cells. For orientation: In an ELISA, binding on a coated surface is turned into a signal by an enzyme label.
The subject of another experiment is U937 cells. The experiment can be described thus: sLe^X expression in U937 cells. The class given is cell-based. An excerpt: A 4-deoxy modified acetylated disaccharide inhibits sLe^X expression in the absence of oligosaccharide priming.
Experiment [3] concerns LLC cells adhering to recombinant P-selectin. The experiment can be described thus: Adhesion of LLC cells to immobilized P-selectin. In kind it is cell-based. An excerpt: LLC cells were “panned” onto wells precoated with recombinant P-selectin (R&D Systems, Minneapolis, M) as described (Brown et al., 2003; Fuster et al., Cancer Research 63: 2775-2781, 2003). The extent of adhesion was normalized to the value obtained for cells not treated with disaccharide. Controls included sialidase and anti-Ps monoclonal antibody treatment.

The test system of the next experiment is LS180 cells. The experiment can be described thus: Biodistribution of pretreated radiolabeled tumor cells in mice. In kind it is in vivo. How it is done:
Biodistribution studies in mice. LS180 cells were grown for 3 days in the presence or absence of 50 μM AcGnG-NM. [^3H-methyl]thymidine (10 μCi/ml, NEN Life Sciences Products) was added to the medium, and cells were incubated for another 3 days. The cells were then harvested with EDTA, resuspended in sterile 0.9% saline, and injected (1×10^5 cells/100 μL) into the lateral tail vein of anesthetized (inhaled methoxyflurane, Janssen Pharmaceuticals) 6-8 week-old wildtype C57BL/6 mice or P-selectin deficient mice bred on the same background (Jackson Laboratory). Mayadas et al., Cell, 74: 541-554, 1993. […] The organs were digested at 55° C. overnight with Proteinase K (0.15 μg/ml, Boehringer Mannheim) in 2 mL PBS containing 1% sodium dodecyl sulfate, and homogenized by repeated passage through an 18 gauge needle. The amount of radioactive DNA in the blood and the organ extracts was then determined using an Easy DNA Kit (Invitrogen) and liquid scintillation spectrometry. The total counts in blood were estimated by assuming a total blood volume of 2 mL per mouse. Proper attention has been given to experimental ethical considerations towards animals as prescribed by the Animal Subjects Program at the University of California.
Altered biodistribution of AcGnG-NM treated tumor cells. The lung is the major “first-pass” adhesion target for tumor cells introduced into the venous circulation. […] Radiolabeled cells were injected into the lateral tail vein of C57BL/6 mice, and allowed to circulate for 3 hours. Mice were sacrificed and DNA was extracted from organ homogenates and whole blood. The counts were normalized to the total recovered counts, which typically represented 80-90% of the injected samples. In FIG. 6A, each value represents the average recoveries from 4 wildtype mice±standard deviation from the mean. In FIG. 6B, the experiment was repeated in P-selectin deficient C57BL/6 mice that were injected with either control- or AcGnG-NM-treated LS180 cells. […]

The subject of a further experiment is LLC cells. The experiment can be described thus: Spontaneous tumor metastasis of LLC cells, compound by osmotic pump. To be noted: ~1 mg/day/mouse, 4 weeks. In kind it is in vivo, mice. How it is done:
Osmotic pumps (ref 4) containing vehicle or peracetylated GlcNAcβ3Gal-NM were surgically implanted in a dorsal skin fold of Es1(e) mice and LLC cells (5×10^5) were implanted subcutaneously in the hindquarter. The dose rate of compound was ˜1 mg/day/mouse. Panel A. To detect tumor cells in the lungs, after 4 weeks each animal was injected intraperitoneally with 1 mg of BrdU (bromodeoxyuridine (BrdU), which is taken up by dividing cells—tumor cells, and therefore indicates the quantity of tumor cells in the lungs when cells from the lungs are stained with anti-BrdU antibodies). The animals were sacrificed, the heart was perfused with PBS and the lungs removed. Each lung was incubated with collagenase (10 mg/ml, 1 h, 37° C.), syringed through an 18-gauge needle and filtered through a […] nylon filter, and cells were fixed (70% ethanol, 1×10^6 cells/ml). The relative number of BrdU-labeled cells in the lungs was determined by flow cytometry (FACS) using a mouse anti-BrdU-FITC antibody. Control experiments used mouse IgG-FITC antibody. Statistics were calculated by one-way ANOVA tests comparing three groups of 4-7 animals. […] Statistics were calculated by student t-test comparing two groups of 4-7 animals.

The mark [4] stands for this setting: wildtype C57BL/6 mice, 3 hours, cells pretreated with 50 μM.

“GlcNAcβ1,3Galβ-O-naphthalenemethanol [AcGnG-NM]”: the “cell-surface sLe^a” value in experiment [1] is on record as “no effect”. Besides, in experiment [2], the “expression of sLe^X on the cell surface” value is reported as “inhibited expression of sLe^X on the cell surface in a dose-dependent manner”. For the same substance, in the experiment on U937 cells, the “sLe^X expression” value is “inhibit sLe^X expression”. Further, the “cell adhesion to immobilized P-selectin” value in experiment [3] was “moderate reduction”. Further, the “distribution of treated versus untreated cells” value in the experiment on LS180 cells (P-selectin deficient mice) was “no difference”. Also, in the experiment with LS180 cells (setting [4]), the “counts recovered in the blood compartment” value is “corresponding increase” and the “seeding of the lungs” value is “substantially reduced”. For the same substance, the “spontaneous tumor metastasis (BrdU-labeled cells in the lungs)” value in the experiment on LLC cells is given as “Inhibits Spontaneous Tumor Metastasis”.
